# Test results as given in patent EP4186500A1, “MEK INHIBITORS FOR THE PREVENTION AND TREATMENT OF LONG COVID SYNDROME” (Atriva Therapeutics GmbH, priority 2021, dated 2023).
# Tests used:
# SARS-CoV-2 [1] = assay type: cell-based, Severe acute respiratory syndrome coronavirus; details: Caco-2, Vero E6 and Calu-3 cells; 100 µM, 75 µM, 50 µM; 24 hours
# SARS-CoV-2 (FI) = assay type: cell-based, Severe acute respiratory syndrome coronavirus; details: primary human ALI cultures, MOI 1.0; 50 µM and 100 µM; three cultures
# ACE2 = ACE2 expression in Calu-3 cells (immunofluorescence microscopy and WES); assay type: cell-based, Homo sapiens; details: 100µM ATR-002, 24h
# Experimental: Then the wells were washed once with PBS and fixed with 300µL/well 4% PFA in PBS for 10 minutes at room temperature. After another wash step with PBS, the cells were blocked for 1 hour with 1% BSA in PBS at room temperature before incubation with 200µL/well of the primary antibody (Goat-Anti-ACE2 antibody (R&D systems; Cat.: AF933; Lot.:HOK0320061) (1:20) in 1% BSA in PBS for 1h at room temperature on a shaker (100 rpm). Afterwards, the cells were washed three times with PBS before incubation with 200µL/well of the secondary antibody Donkey anti-Goat IgG (H+L) Highly Cross-Absorbed Secondary Antibody, Alexa Fluor Plus 647 (Invitrogen; Ref.: A32849TR; Lot.:VE306231) (1:200) in 1% BSA in PBS for 45 minutes at room temperature on a shaker. After another three wash steps with PBS, 200µL Rhodamine Phalloidin (Invitrogen; Ref.: R415; Lot.: 2157163) (1:40 in 1% BSA in PBS) were added to each well and incubated for 30 minutes at room temperature on a shaker. After two final wash steps with PBS, the cover slips were removed from the wells and mounted on microscope slides with Roti®-Mount FluorCare DAPI (Roth; Art.-Nr.: HP20.1; Lot.: 080293945). The slides were let dry at 4°C in the dark and then analysed using a confocal laser scanning microscope (LSM800, Zeiss).
# SARS-CoV-2 [2] = experiment: SARS-CoV-2 Syrian hamster infection model; details: for reduction of progeny virus in throat swabs (TCID50 assay): 100mg/kg loading dose then 75mg/kg daily, oral; for reduction of progeny virus in throat swabs (TCID50 assay) / reduction of viral load in throat swabs (PCR): day 3 p.i.
# [3] = system: IP10, TNF-alpha and MCP-1; experiment: Cytokine/chemokine expression in LPS induced PBMC
# memory T cells = experiment: 12-day T cell clonal expansion with IFN-γ FluoroSpot (memory T cell reactivation)
# [4] = LPS induced PMBC cells, 10µg/ml ATR-002
smiles,measurement,setting,value
"O=C(O)c1ccc(F)c(F)c1Nc1ccc(I)cc1Cl [ATR-002, 2-(2-chloro-4-iodophenylamino)-N-3,4-difluoro benzoic acid]",virus titer via RT-qPCR (N gene),SARS-CoV-2 [1],the effect seen on all cell types was comparable
same,production of progeny viral particles,SARS-CoV-2 (FI),completely blocked the production of progeny viral particles
same,ACE2 expression,ACE2,reduction of ACE2
same,"tolerability, weight loss, adverse effects",SARS-CoV-2 [2]; both treatment groups compared to vehicle group,well tolerated without significant weight loss
same,"alveolar haemorrhage, oedema and type II pneumocyte hyperplasia","SARS-CoV-2 [2]; histopathology 4 days post infection, treated at days 1, 2, and 3 post infection","no haemorrhage, oedema and type II pneumocyte hyperplasia"
same,score in alveolitis,"SARS-CoV-2 [2]; histopathology 4 days post infection, treated at days 1, 2, and 3 post infection, vehicle score 3",1
same,reduction of progeny virus in throat swabs (TCID50 assay),SARS-CoV-2 [2]; treated 4 hours p.i.,1.1 log10
same,reduction of viral load in throat swabs (PCR),SARS-CoV-2 [2]; treated 4 hours p.i.,1.1 log10
same,reduction of progeny virus in throat swabs (TCID50 assay),SARS-CoV-2 [2]; treated 24 hours p.i.,1.3 log10
same,reduction of viral load in throat swabs (PCR),SARS-CoV-2 [2]; treated 24 hours p.i.,1.2 log10
same,percentage of affected lung area,"SARS-CoV-2 [2]; treatment 4 hours p.i., day 4 p.i., P=0.0282",significantly reduced affected lung tissue
same,percentage of affected lung area,"SARS-CoV-2 [2]; treatment 24 hours p.i., day 4 p.i., P=0.0314",significantly reduced affected lung tissue
same,reduction in infectious virus titers (TCID50/g tissue) in the nasal turbinates,"SARS-CoV-2 [2]; treatment start 4 hours p.i., day 4 p.i.",1.3 log10
same,reduction of viral load in the nasal turbinates (PCR),"SARS-CoV-2 [2]; treatment started 4 hours p.i., day 4 p.i.",1.1 log10
same,infectious virus titers in the nasal turbinates,"SARS-CoV-2 [2]; treatment started 24 hours p.i., day 4 p.i.","not the treatment started 24 hours p.i., significantly reduced infectious virus titers"
same,inhibition at 10 µg/mL,"[3]; Homo sapiens, PBMC, read-out: inhibition of LPS induced MCP-1",> 90%
same,IP10 expression,[3]; [4],reduced
same,MCP-1 expression,[3]; [4],reduced
same,TNF-alpha expression,[3]; [4],reduced
same,"Spot counts, representing the number of activated T cells","memory T cells; CEF peptide stimulated PBMCs, three donors, 5 or 10 pg/mL on three different time points, 12 days",not reduced
same,cell proliferation/density by microscope,memory T cells; in vitro culture of PBMC,no visible effect on cell proliferation/density
